In publication PMC10212229 (Pharmaceutical Research, 2023):
Entries after “also recorded” stand apart in the source; their conditions may differ.

Assays:
[1] = Clinical pharmacokinetics of nirmatrelvir in healthy volunteers; format: in vivo, human; details: for renal clearance in the presence and absence of ritonavir: with vs without ritonavir
[2] = Paxlovid PBPK model verification, nirmatrelvir predicted vs observed exposure; set-up: species or system human
Caco-2 = details: cited from earlier work
[3] = without ritonavir coadministration; cited from earlier work
CYP3A4 = details: cited from earlier work
[4] = In vitro precipitation test of nirmatrelvir SDD formulation; format: physicochemical; details: Pfizer data on file
MDCK-LE = details: cited from earlier work
[5] = Simcyp ritonavir first-order compound file; set-up: species or system human; details: PK and DDI

SMILES	oral clearance (CLPO) ([1]; SDD 300 mg single dose without ritonavir, Dataset #1, geometric mean)	renal clearance in the presence and absence of ritonavir [1]	renal clearance in the presence and absence of ritonavir ([1]; listed as nirmatrelvir)	deviation of predicted AUC and Cmax from the observed [2]	Papp (Caco-2)	half-life [3]	in vitro fm,CYP3A4 (CYP3A4; formation rate of the major metabolites with selective inhibitors)	main metabolizing enzyme (CYP3A4; in vitro reaction phenotyping data)	period remained in solution without precipitating [4]	Papp (MDCK-LE)	predicted vs observed values, ritonavir model [5]
CC(C)(C)[C@H](NC(=O)C(F)(F)F)C(=O)N1C[C@H]2[C@@H]([C@H]1C(=O)N[C@H](C#N)C[C@@H]1CCNC1=O)C2(C)C [Nirmatrelvir, nirmatrelvir]	28.36 L/h	did not change	remains the same	≤ 20%	0.66–1.19 10^–6 cm/s	2 h	0.99	mainly metabolized by CYP3A4; also recorded: predominantly metabolized by CYP3A4	24 h	1.76 10^–6 cm/s	
CC(C)c1nc(CN(C)C(=O)N[C@H](C(=O)N[C@@H](Cc2ccccc2)C[C@H](O)[C@H](Cc2ccccc2)NC(=O)OCc2cncs2)C(C)C)cs1 [Ritonavir, ritonavir]											within twofold
